Experimental data from patent US20260318918A1, “CANCER DIAGNOSTICS AND TREATMENT BY MEANS OF PRMT5 INHIBITOR” (ARGONAUT THERAPEUTICS LIMITED, priority 2022, published 2026).

How the values were obtained:
Format in all cases: cell-based
[1] = test system: T-47D cell line (breast cancer); test: MTT cell viability assay, T-47D (breast cancer), CRISPR knock-out; conditions: 8 days; for sensitivity to PRMT5 inhibition (cell viability) of cells lacking E2F1: E2F1 deleted by CRISPR; for sensitivity to PRMT5 inhibition (cell viability) of cells lacking pRb: pRb deleted by CRISPR
Experimental: (§1) T-47D cells were maintained in growth medium (RPMI 1640 supplemented with 10% v/v heat inactivated fetal bovine serum and cultured at 37° C., 5% CO2, U2OS, MCF7 and HCT116 cells were maintained in growth medium (DMEM supplemented with 10% v/v heat inactivated fetal bovine serum) and cultured at 37° C., 5% CO2. Under assay conditions, cells were incubated in assay medium (RPMI 1640 or […] supplemented with 10% v/v heat inactivated fetal bovine serum and 100 units/mL penicillin-streptomycin) at 37° C. under 5% CO2. For the assessment of the effect of compounds on the proliferation of the cancer cell lines, exponentially growing cells were plated into 96-well plates overnight at a density of 1,000 cells/well in a final volume of 100 μl of cell growth medium. The next day the cells were dosed with compounds (T-992, GSK3326595, LLY-283, PF-06939999 and JNJ64619178) (quadruplicate ten-point 5-fold serial dilutions in DMSO), beginning at 100 μM. After addition of compounds, assay plates were incubated for 8 days at 37° C., 5% CO2, relative humidity 90%. NAD(P)H-dependent cellular oxidoreductase enzyme activity was measured by adding 100 μl thiazolyl blue tetrazolium bromide (MTT: Sigma-Aldrich) to the wells at a final concentration of 5 μM and incubated for 2 h at 37° C. Next, media was discarded from the wells and the formazan crystals were dissolved in 100 μl DMSO by shaking for 15 min. Absorbance was read on the Omega FLUOstar plate reader (BMG Labtech Ltd, Ortenberg, Germany) at a wavelength of 584 nm. Data were analysed and IC50 values determined using MARs data analysis software (BMG Labtech Ltd, Ortenberg, Germany). The concentration of compound inhibiting cell viability by 50% was determined using a 4-parametric fit of the normalized dose response curves.
(§2) pSpCas9(BB)-2A-Puro (Addgene plasmid ID: 48139) was used for the generation of E2F1 and pRb knock out cell lines using CRISPR-Cas9 technology. Cell lines were generated as detailed in (Ran et al., 2013).

[2] = test system: HCT116 cell line (colorectal cancer); test: MTT cell viability assay, HCT116 (colorectal cancer), CRISPR knock-out; conditions: E2F1 deleted by CRISPR, 8 days
Experimental: as §1, §2

[3] = test system: U20S cell line (bone cancer); test: MTT cell viability assay, U20S (bone cancer), CRISPR knock-out; conditions: pRb deleted by CRISPR, 8 days
Experimental: as §1, with “The next day the cells were dosed with compounds (T-992, GSK3326595, LLY-283, PF-06939999 and JNJ64619178) (quadruplicate ten-point 5-fold serial dilutions in DMSO), beginning at 100 μM. After addition of compounds, assay plates were incubated for 8 days at 37° C., 5% CO2, relative humidity 90%.” left out, “Next, media was discarded from the wells and the formazan crystals were dissolved in 100 μl DMSO by shaking for 15 min.” left out, “curves. […]” for “curves.”

SMILES | sensitivity to PRMT5 inhibition (cell viability) of cells lacking E2F1 [1] | sensitivity to PRMT5 inhibition (cell viability) of cells lacking pRb [1] | sensitivity to PRMT5 inhibition (cell viability) of cells lacking E2F1 [2] | sensitivity to PRMT5 inhibition (cell viability) of cells lacking pRb [3]
O[C@@H]1CO[C@H]2[C@@H]1OC[C@@H]2O [AT101] | less sensitive | more sensitive | less sensitive | more sensitive
CC(=O)N1CCC(Nc2cc(C(=O)NC[C@H](O)CN3CCc4ccccc4C3)ncn2)CC1 [GSK3326595] | less sensitive | more sensitive | less sensitive | 
Nc1nc2cc(CC[C@H]3C[C@@H](n4ccc5c(N)ncnc54)[C@H](O)[C@@H]3O)ccc2cc1Br [JNJ64619178] | less sensitive |  | less sensitive | 
Nc1ncnc2c1ccn2[C@@H]1O[C@H]([C@H](O)c2ccccc2)[C@@H](O)[C@H]1O [LLY-283] | less sensitive |  | less sensitive | 
Cc1ncnc2c1ccn2[C@@H]1C[C@H](Oc2cc(C(F)F)c(F)c3c2CNCC3)[C@@H](O)[C@H]1O [PF06939999] | less sensitive | more sensitive | less sensitive | 
